Key:
Assay type in all cases: in vivo, human
[1] = Pharmacokinetic study of oral teriparatide tablet in healthy volunteers (Example 1)
Protocol: An open label comparative pharmacokinetic study was performed in healthy volunteers over the course of 3 months. Each volunteer received—in each of two visits—the same oral tablet containing 0.75 mg of teriparatide, a recombinant form of parathyroid hormone (1-34).
The formulation was composed of teriparatide (0.75 mg), SNAC (sodium 8-N-(2-hydroxybenzoyl) aminocaprylate), soybean trypsin inhibitor (SBTI) and a small amount of magnesium stearate.
Tablets were administered in the morning after an 8-hour overnight fast and immediately followed by 150 ml of water. At each visit a standard meal was provided 3 hours after drug administration. […] There was a two weeks period between the visits.
(§1) To determine parathyroid hormone (1-34) (PTH(1-34)) concentrations, blood samples (4 ml each) were drawn via an indwelling catheter from the forearm vein at predetermined time points during each visit. The cannula was flushed with 1.5 ml normal saline after each sampling. In addition, to avoid sample dilution, 1 ml of blood was drawn and discarded before the next sample. The blood samples were taken at following times: baseline (predose), 10 minutes, 15 minutes, 20 minutes, 30 minutes, 45 minutes, 60 minutes, 75 minutes, 90 minutes, 105 minutes, 2 hours, 3 hours, 4 hours and 5 hours post-administration. Each blood sample was collected into a single tube containing EDTA (ethylenediaminetetraacetic acid) and placed on ice. Within 15 minutes of blood collection, samples were centrifuged for 10 minutes at 4° C. (2500 rotations per minute) and the plasma was separated and divided into two or three aliquots. Each aliquot was transferred into appropriately labeled polypropylene tubes and stored at approximately −20° C. pending analysis. PTH (1-34) levels were measured using an IDS-iSYS automated assay for the measurement of intact PTH (1-34) in human plasma or serum.

[2] = Phase I clinical trial of oral teriparatide formulations, plasma PTH (1-34) versus subcutaneous injection (Example 2)
Protocol: A Phase I clinical study of exemplary oral formulations comprising teriparatide (parathyroid hormone (1-34)) was conducted at the Hadassah Clinical Research Center. 42 healthy volunteers were included throughout the study.
The formulation was composed of teriparatide (200, 400, 680, 1400 or 1800μ.g), SNAC (sodium 8-N-(2-hydroxybenzoyl) aminocaprylate), soybean trypsin inhibitor and magnesium stearate.
Tablets were administered in the morning after an 8-hour overnight fast and immediately followed by 150 ml of water. At each visit a standard meal was provided 3 hours after drug administration.
as §1, with “hormone” for “hormone (1-34) (PTH(1-34))”, “points.” for “points during each visit.”, “(predose),” for “(predose), 10 minutes,”, “15” for “15 minutes, 20”
Oral administration of teriparatide was performed as described hereinabove at doses of 200, 400, 680, 1400 or 1800 μg. The Cmax of PTH (1-34) for each orally administered dose was compared with the Cmax of PTH (1-34) for subcutaneous injection of 20 μg teriparatide.

[3] = tested on: cAMP, a known marker of PTH activity; experiment: Plasma cAMP levels after teriparatide administration (marker of PTH activity); settings: FIG. 4
Protocol: In addition, plasma levels of cAMP, a known marker of PTH activity, were determined in order to confirm biological activity of administered PTH. cAMP plasma levels were measured following oral administration of 680 μg teriparatide or subcutaneous injection of 20 μg teriparatide, as described hereinabove.

CC[C@H](C)[C@H](NC(=O)[C@H](CCC(=O)O)NC(=O)[C@H](CO)NC(=O)[C@@H](NC(=O)[C@@H](N)CO)C(C)C)C(=O)N[C@@H](CCC(N)=O)C(=O)N[C@@H](CC(C)C)C(=O)N[C@@H](CCSC)C(=O)N[C@@H](Cc1cnc[nH]1)C(=O)N[C@@H](CC(N)=O)C(=O)N[C@@H](CC(C)C)C(=O)NCC(=O)N[C@@H](CCCCN)C(=O)N[C@@H](Cc1cnc[nH]1)C(=O)N[C@@H](CC(C)C)C(=O)N[C@@H](CC(N)=O)C(=O)N[C@@H](CO)C(=O)N[C@@H](CCSC)C(=O)N[C@@H](CCC(=O)O)C(=O)N[C@@H](CCCN=C(N)N)C(=O)N[C@H](C(=O)N[C@@H](CCC(=O)O)C(=O)N[C@@H](Cc1c[nH]c2ccccc12)C(=O)N[C@@H](CC(C)C)C(=O)N[C@@H](CCCN=C(N)N)C(=O)N[C@@H](CCCCN)C(=O)N[C@@H](CCCCN)C(=O)N[C@@H](CC(C)C)C(=O)N[C@@H](CCC(N)=O)C(=O)N[C@@H](CC(=O)O)C(=O)N[C@H](C(=O)N[C@@H](Cc1cnc[nH]1)C(=O)N[C@@H](CC(N)=O)C(=O)N[C@@H](Cc1ccccc1)C(=O)O)C(C)C)C(C)C [teriparatide]
Cmax after 1st administration ([1]; oral tablet 0.75 mg teriparatide with SNAC, SBTI, magnesium stearate, fasted healthy volunteers, plasma PTH (1-34), one table row per individual subject (A, B, C)): 35 picogram/ml | time for parathyroid hormone (1-34) levels to return to baseline levels after tablet administration ([1]; oral tablet 0.75 mg teriparatide, FIGS. 1A-1C): ≤ 60 min | time after administration at which peak concentration (Cmax) occurred ([1]; oral tablet 0.75 mg teriparatide, all subjects and administrations, Table 3, FIGS. 1A-1C): ≤ 20 min | Cmax after 2nd administration ([1]; same oral tablet 0.75 mg teriparatide, second visit two weeks later, plasma PTH (1-34), one table row per individual subject (A, B, C)): 36 picogram/ml | decline of PTH levels following oral administration compared with subcutaneous administration ([2]; oral 1800 μg versus subcutaneous 20 μg teriparatide, FIG. 3): declined considerably more rapidly | dose dependence of Cmax of PTH (1-34) following oral administration ([2]; oral doses 200, 400, 680, 1400 or 1800 μg teriparatide, FIG. 2): proportional to the dose | oral dose providing a Cmax equivalent to that of subcutaneous administration of 20 μg teriparatide ([2]; oral tablets with SNAC, soybean trypsin inhibitor, magnesium stearate, FIG. 2): roughly 750 μg | plasma cAMP levels ([3]; oral administration of 680 μg teriparatide, compared with subcutaneous 20 μg): increased plasma cAMP levels to a similar degree | plasma cAMP levels ([3]; subcutaneous administration of 20 μg teriparatide, compared with oral 680 μg): increased plasma cAMP levels to a similar degree

Source: patent US20180036382A1, “FORMULATIONS FOR ORAL ADMINISTRATION OF ACTIVE AGENTS WITH CONTROLLED ABSORPTION PROFILE” (Entera Bio Ltd., priority 2015, published 2018)
